The source of these data is patent US8026362B2, “Non-nucleoside reverse transcriptase inhibitors” (Roche Palo Alto LLC, priority 2007, dated 2011).

In data set [1] the target is HIV-1 RT (Human immunodeficiency virus type 1 group M subtype B, UniProt P04585). In words: HIV-1 Reverse Transcriptase Assay (RNA-dependent DNA polymerase activity, SPA). The settings on record: 30° C., 30 min, 10% DMSO. Type of data set: biochemical. How it is done: RNA-dependent DNA polymerase activity was measured using a biotinylated primer oligonucleotide and tritiated dNTP substrate. Newly synthesized DNA was quantified by capturing the biotinylated primer molecules on streptavidin coated Scintillation Proximity Assay (SPA) beads (Amersham). The sequences of the polymerase assay substrate were: 18 nt DNA primer, 5′-Biotin/GTC CCT GTT CGG GCG CCA-3′; 47 nt RNA template, 5′-GGGUCUCUCUGGUUAGACCACUCUAGCAGUGGCGCCCGAACAGGGAC-3′. The biotinylated DNA primer was obtained from the Integrated DNA Technologies Inc. and the RNA template was synthesized by Dharmacon. The DNA polymerase assay (final volume 50 μl) contained 32 nM biotinylated DNA primer, 64 nM RNA substrate, dGTP, dCTP, dTTP (each at 5 μM), 103 nM [^3H]-dATP (specific activity=[…]), in 45 mM Tris-HCl, pH 8.0, 45 mM NaCl, 2.7 mM Mg(CH3COO)2, 0.045% Triton X-100 w/v, 0.9 mM EDTA. The reactions contained 5 ul of serial compound dilutions in 100% DMSO for IC50 determination and the final concentrations of DMSO were 10%. Reactions were initiated by the addition of 30 μl of the HIV-RT enzyme (final concentrations of 1-3 nM). Protein concentrations were adjusted to provide linear product formation for at least 30 min of incubation. After incubation at 30° C. for 30 min, the reaction was quenched by addition of 50 μl of 200 mM EDTA (pH 8.0) and […] SA-PVT SPA beads (Amersham, RPNQ0009, reconstituted in 20 mM Tris-HCl, pH 8.0, 100 mM EDTA and 1% BSA). The beads were left to settle overnight and the SPA signals were counted in a 96-well top counter-NXT (Packard).

Data set [2] relates to HXB2-strain of HIV in MT4 cells. The experiment in a line: Antiviral assay: protection of HIV-infected MT4 cells from cell death (MTT). Type of data set: cell-based. The conditions noted are these: Human immunodeficiency virus 1, 120 h; MT4 cells infected with HXB2-strain of HIV, 5 days, MTT viability. The protocol:
Anti-HIV antiviral activity was assessed using an adaptation of the method of Pauwels et al. {Pauwels et al., J Virol Methods 1988 20:309-321}. The method is based on the ability of compounds to protect HIV-infected T lymphoblastoid cells (MT4 cells) from cell-death mediated by the infection. The endpoint of the assay was calculated as the concentration of compound at which the cell viability of the culture was preserved by 50% (‘50% inhibitory concentration’, IC50). The cell viability of a culture was determined by the uptake of soluble, yellow 3-[4,5-dimethylthiazol-2-yl]-2,5-diphenyltetrazolium bromide (MTT) and its reduction to a purple insoluble formazan salt. After solubilization, spectrophotometric methods were employed to measure the amount of formazan product. […]
A fresh solution of 5 mg/mL MTT was prepared in 0.01 M phosphate buffered saline, pH 7.2 and 20 microliters added to each culture. […] When the formazan deposit was fully solubilized by further mixing, the absorbance (OD) of the cultures was measured at 540 nm and 690 nm wavelength (690 nm readings were used as blanks for artifacts between wells). The percent protection for each treated culture was then calculated from the equation: […]

The term IC50 denotes the midpoint of a concentration-inhibition curve. Lower therefore signals inhibition by little substance. Broadly, the melting point is the temperature, or range, at which the solid turns liquid. The compound `N#Cc1cc(Cl)cc(Oc2c(Br)ccc(CN3CC(=O)NC3=O)c2F)c1` [Compound I-20, 3-[6-Bromo-3-(2,4-dioxo-imidazolidin-1-ylmethyl)-2-fluoro-phenoxy]-5-chloro-benzonitrile] gave a melting point of 131.5 to 132.8 °C. In addition, in data set [1], the IC50 is 9 nM. Moreover, the IC50 in data set [2] was 4.2 nM.
Compound `Cc1cn(Cc2ccc(Br)c(Oc3cc(Cl)cc(C#N)c3)c2F)c(=O)[nH]c1=O` [Compound I-2, 3-[6-Bromo-2-fluoro-3-(5-methyl-2,4-dioxo-3,4-dihydro-2H-pyrimidin-1-ylmethyl)-phenoxy]-5-chloro-benzonitrile] gave a melting point of 223.1 to 224.2 °C. For the same compound, the IC50 in data set [1] worked out at 3.9 nM. In data set [2], this compound returned an IC50 of 3.1 nM.
On to `N#Cc1cc(Cl)cc(Oc2c(Br)ccc(Cn3ccc(N)nc3=O)c2F)c1` [Compound I-12, 3-[3-(4-Amino-2-oxo-2H-pyrimidin-1-ylmethyl)-6-bromo-2-fluoro-phenoxy]-5-chloro-benzonitrile], for which the melting point lay in the range of 240 to 245 °C. The IC50 in data set [1] was 148 nM.
For the compound `N#Cc1cc(C#N)cc(Oc2c(Br)ccc(Cn3ccc(=O)[nH]c3=O)c2F)c1` [Compound I-11, 5-[6-Bromo-3-(2,4-dioxo-3,4-dihydro-2H-pyrimidin-1-ylmethyl)-2-fluoro-phenoxy]-isophthalonitrile], the melting point fell in the range of 132 to 133 °C. Also, in data set [1], half-maximal inhibition (IC50) required 22.9 nM.
As to `CC1CN(Cc2ccc(Br)c(Oc3cc(Cl)cc(C#N)c3)c2F)C(=O)NC1=O` (stereo not shown) [Compound I-29, 3-[6-Bromo-2-fluoro-3-(5-methyl-2,4-dioxo-tetrahydro-pyrimidin-1-ylmethyl)-phenoxy]-5-chloro-benzonitrile], the melting point lay within 227.8 to 228.6 °C. In data set [1], the IC50 worked out at 85.8 nM.
As to `C=CCC1C(=O)NC(=O)N1Cc1ccc(Br)c(Oc2cc(Cl)cc(C#N)c2)c1F` (stereo not shown) [Compound I-22, 3-[3-(5-Allyl-2,4-dioxo-imidazolidin-1-ylmethyl)-6-bromo-2-fluoro-phenoxy]-5-chloro-benzonitrile], the melting point fell in the range of 200 to 201 °C. In data set [1], this compound came in with an IC50 of 1000 nM.
Turning to `N#Cc1cc(Cl)cc(Oc2c(Br)ccc(Cn3cc(Cl)c(=O)[nH]c3=O)c2F)c1` [Compound I-4, 3-[6-Bromo-3-(5-chloro-2,4-dioxo-3,4-dihydro-2H-pyrimidin-1-ylmethyl)-2-fluoro-phenoxy]-5-chloro-benzonitrile], the melting point was in the range of 260.8 to 261.7 °C. The compound further returned an IC50 in data set [1] of 4.1 nM.
